Results published in article PMC4669708 (Cell Death & Disease, 2015).

Columns and labels:
Experiment in all cases: c-ponatinib pulldown LC-MS/MS
Assay type in all cases: binding
YWHAH = biological target: T1, YWHAH (Homo sapiens, UniProt Q04917)
T1 sequence (Q04917 1-246): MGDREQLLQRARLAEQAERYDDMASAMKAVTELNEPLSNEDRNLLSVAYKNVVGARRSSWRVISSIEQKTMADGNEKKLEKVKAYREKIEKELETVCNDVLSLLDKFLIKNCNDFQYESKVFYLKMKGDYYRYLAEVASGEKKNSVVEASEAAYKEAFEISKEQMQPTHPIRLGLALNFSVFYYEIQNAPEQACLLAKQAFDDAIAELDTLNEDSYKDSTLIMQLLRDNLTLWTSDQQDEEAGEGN
Outline: (§1)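 c-Ponatinib (25 nmol) immobilized on NHS-Sepharose was incubated with 10 mg whole cell lysate per replicate, in duplicate. Eluates were reduced, alkylated, trypsin-digested and analysed by gel-free 1D LC-MS/MS. Specificity was scored from Mascot, Phenyx and spectral counts, with competition by free compound.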

MAPK14 = MAPK14 (Homo sapiens, UniProt Q16539)
MAPK14, sequence (Q16539 whole entry): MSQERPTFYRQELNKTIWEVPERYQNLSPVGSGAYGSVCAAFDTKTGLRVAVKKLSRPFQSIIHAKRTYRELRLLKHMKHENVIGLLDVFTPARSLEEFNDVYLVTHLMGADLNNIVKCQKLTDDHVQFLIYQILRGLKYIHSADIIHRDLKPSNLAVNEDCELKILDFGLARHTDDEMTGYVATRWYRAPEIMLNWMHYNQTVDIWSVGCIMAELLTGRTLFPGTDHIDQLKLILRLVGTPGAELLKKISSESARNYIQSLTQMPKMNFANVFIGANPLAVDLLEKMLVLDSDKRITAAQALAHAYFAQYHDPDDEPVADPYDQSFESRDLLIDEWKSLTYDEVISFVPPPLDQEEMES
Outline: as §1

UNC119 = UNC119 (Homo sapiens, UniProt Q13432)
Outline: as §1

MELK = MELK (Homo sapiens, UniProt Q14680)
MELK, sequence (Q14680 whole entry): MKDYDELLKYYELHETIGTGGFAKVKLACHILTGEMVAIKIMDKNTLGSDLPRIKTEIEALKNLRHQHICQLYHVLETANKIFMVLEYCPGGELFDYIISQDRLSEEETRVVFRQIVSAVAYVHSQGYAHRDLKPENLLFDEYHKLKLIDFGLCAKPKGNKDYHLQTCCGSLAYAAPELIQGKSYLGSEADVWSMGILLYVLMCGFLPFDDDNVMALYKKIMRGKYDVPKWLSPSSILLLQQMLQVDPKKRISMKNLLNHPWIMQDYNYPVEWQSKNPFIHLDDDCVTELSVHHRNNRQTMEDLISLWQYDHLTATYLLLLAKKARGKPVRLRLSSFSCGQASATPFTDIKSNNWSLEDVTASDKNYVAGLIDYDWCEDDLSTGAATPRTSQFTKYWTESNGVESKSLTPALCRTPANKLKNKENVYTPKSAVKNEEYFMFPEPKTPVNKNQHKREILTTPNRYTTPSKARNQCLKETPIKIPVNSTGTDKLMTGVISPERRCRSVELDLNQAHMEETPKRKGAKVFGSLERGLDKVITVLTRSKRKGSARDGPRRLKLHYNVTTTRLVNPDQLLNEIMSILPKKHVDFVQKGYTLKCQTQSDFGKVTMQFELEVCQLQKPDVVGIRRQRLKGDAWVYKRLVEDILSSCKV
Outline: as §1

MLKL = biological target: T2, MLKL (Homo sapiens, UniProt Q8NB16)
T2 sequence (Q8NB16 1-471): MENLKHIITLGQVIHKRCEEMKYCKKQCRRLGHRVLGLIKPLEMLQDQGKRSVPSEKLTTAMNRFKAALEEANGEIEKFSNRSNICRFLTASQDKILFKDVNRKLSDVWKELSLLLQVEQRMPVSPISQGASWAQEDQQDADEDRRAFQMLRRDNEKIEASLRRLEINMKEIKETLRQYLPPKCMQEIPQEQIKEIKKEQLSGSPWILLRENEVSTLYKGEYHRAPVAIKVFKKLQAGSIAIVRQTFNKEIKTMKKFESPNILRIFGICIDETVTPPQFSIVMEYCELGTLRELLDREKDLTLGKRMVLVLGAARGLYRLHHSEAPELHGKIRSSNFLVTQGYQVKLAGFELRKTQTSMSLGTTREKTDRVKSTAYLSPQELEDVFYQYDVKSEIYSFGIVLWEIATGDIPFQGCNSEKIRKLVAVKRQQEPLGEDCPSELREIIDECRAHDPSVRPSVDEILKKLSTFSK
Outline: as §1

CDK19 = CDK19 (Homo sapiens, UniProt Q9BWU1)
CDK19, sequence (Q9BWU1 whole entry): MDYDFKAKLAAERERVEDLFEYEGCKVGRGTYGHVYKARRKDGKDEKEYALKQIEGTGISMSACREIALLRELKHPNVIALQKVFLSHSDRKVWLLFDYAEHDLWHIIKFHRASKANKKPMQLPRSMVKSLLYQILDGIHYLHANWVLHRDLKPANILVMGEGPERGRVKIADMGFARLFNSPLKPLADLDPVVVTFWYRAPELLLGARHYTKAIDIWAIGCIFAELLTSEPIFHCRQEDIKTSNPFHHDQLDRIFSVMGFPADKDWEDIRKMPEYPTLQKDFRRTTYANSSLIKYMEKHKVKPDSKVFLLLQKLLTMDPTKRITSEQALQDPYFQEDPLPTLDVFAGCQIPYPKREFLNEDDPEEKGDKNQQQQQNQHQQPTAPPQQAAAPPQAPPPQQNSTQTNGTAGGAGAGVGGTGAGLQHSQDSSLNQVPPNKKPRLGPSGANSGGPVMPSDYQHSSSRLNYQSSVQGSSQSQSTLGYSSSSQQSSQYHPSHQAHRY
CDK19, sequence (P24863 whole entry partner): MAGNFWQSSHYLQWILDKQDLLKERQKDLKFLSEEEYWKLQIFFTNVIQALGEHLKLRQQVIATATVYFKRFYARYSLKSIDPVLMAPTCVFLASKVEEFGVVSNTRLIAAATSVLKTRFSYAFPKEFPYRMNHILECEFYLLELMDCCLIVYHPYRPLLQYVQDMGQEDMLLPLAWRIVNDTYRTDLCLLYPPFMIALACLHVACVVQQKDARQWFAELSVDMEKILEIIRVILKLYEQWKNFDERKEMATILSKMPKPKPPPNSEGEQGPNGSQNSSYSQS
Outline: as §1

BLK = BLK (Homo sapiens, UniProt P51451)
BLK, sequence (P51451 whole entry): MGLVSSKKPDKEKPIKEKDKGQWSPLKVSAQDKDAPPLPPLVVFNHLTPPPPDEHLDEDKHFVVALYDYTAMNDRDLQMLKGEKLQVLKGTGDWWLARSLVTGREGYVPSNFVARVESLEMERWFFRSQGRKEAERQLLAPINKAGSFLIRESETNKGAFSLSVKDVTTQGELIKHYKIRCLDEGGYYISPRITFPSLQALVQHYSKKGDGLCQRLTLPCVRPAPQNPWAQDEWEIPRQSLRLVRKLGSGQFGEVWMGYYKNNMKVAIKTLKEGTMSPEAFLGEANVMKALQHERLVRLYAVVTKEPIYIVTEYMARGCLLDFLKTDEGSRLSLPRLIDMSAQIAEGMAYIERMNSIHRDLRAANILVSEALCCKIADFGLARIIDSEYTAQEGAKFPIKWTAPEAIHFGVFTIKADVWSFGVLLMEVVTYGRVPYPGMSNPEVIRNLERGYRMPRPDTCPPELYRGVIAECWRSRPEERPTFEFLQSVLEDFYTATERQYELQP
Outline: as §1

Av. SC comp. (YWHAH; + free ponatinib): 0.25 | Total SC comp. (YWHAH; + free ponatinib): 1 | Av. SC (YWHAH; no competitor): 6 | Total SC (YWHAH; no competitor): 24 | Av. SC comp. (MAPK14; + free ponatinib): 7.25 | Total SC comp. (MAPK14; + free ponatinib): 29 | Av. SC (MAPK14; no competitor): 79.25 | Total SC (MAPK14; no competitor): 317 | Av. SC comp. (UNC119; + free ponatinib): 0 | Total SC comp. (UNC119; + free ponatinib): 0 | Av. SC (UNC119; no competitor): 20.5 | Total SC (UNC119; no competitor): 82 | Av. SC comp. (MELK; + free ponatinib): 1 | Total SC comp. (MELK; + free ponatinib): 4 | Av. SC (MELK; no competitor): 5 | Total SC (MELK; no competitor): 20 | Av. SC comp. (MLKL; + free ponatinib): 0 | Total SC comp. (MLKL; + free ponatinib): 0 | Av. SC (MLKL; no competitor): 5 | Total SC (MLKL; no competitor): 20 | Av. SC comp. (CDK19; + free ponatinib): 0 | Total SC comp. (CDK19; + free ponatinib): 0 | Av. SC (CDK19; no competitor): 7.5 | Total SC (CDK19; no competitor): 30 | Av. SC comp. (BLK; + free ponatinib): 0 | Total SC comp. (BLK; + free ponatinib): 0 | Av. SC (BLK; no competitor): 9.5 | Total SC (BLK; no competitor): 38
SMILES: Cc1ccc(C(=O)Nc2ccc(CN3CCN(CCCN)CC3)c(C(F)(F)F)c2)cc1C#Cc1cnc2cccnn12 [c-ponatinib]
